Source: publication PMC9820430, “New Affordable Methods for Large-Scale Isolation of Major Olive Secoiridoids and Systematic Comparative Study of Their Antiproliferative/Cytotoxic Effect on Multiple Cancer Cell Lines of Different Cancer Origins” (International Journal of Molecular Sciences, 2022)
Where two headings read alike, the source gives them in different places.

What was measured:
[1] = system: NHDF; test: ATP-based luminescence cell viability assay (ViaLight), 72 h; details: NHDF (normal human dermal fibroblasts); 72 h treatment; read-out: EC50 Values of Olive Oil Polyphenols
Procedure: (§1) The antiproliferative/cytotoxic effects of the selected OOPs on each cell line were assessed by measuring the cellular ATP levels after 72 h treatments using an ATP-based luminescence assay. This assay, initially developed as a tumor chemosensitivity assay, has shown considerable promise as a general in vitro toxicity assay due to its high sensitivity that allows the detection of a small number of cells. Consequently, it can be applied to both cancer cell lines and primary tissue cells. […] The EC50 values were calculated by nonlinear regression (curve fit) using a sigmoidal dose–response equation (Figure 2A and Figure S2).
(§2) The OOPs tested in this study were first dissolved in an appropriate DMSO volume such as to prepare a final stock solution of 50 mM, which was further used to prepare various compound concentrations in DMSO-based solutions. The final DMSO concentration in the cell culture was maintained constant in all treated groups of any given experiment and never exceeded the value of 0.2% (v/v). For the treatment experiments, cells were plated in 96-well culture plates, in 100 μL of complete medium at a seeding density of 5000–10,000 cells/well—depending on cells’ size and doubling time—and were allowed to adhere overnight (~16 h). The next day, 150 μL of complete medium was added to each well and the cells were treated with various concentrations of OOPs. Each concentration was tested in triplicate and was repeated 2–3 times. To prepare the final concentration solutions, 0.5 μL of a 500× stock of each tested compound in DMSO was added directly into each well in a final volume of 250 μL culture medium and was gently mixed by pipetting. Control wells were prepared under the same experimental conditions by adding only DMSO at a final concentration of 0.2% (v/v). Compounds were not renewed during the entire period of cell exposure. All cells were cultured at 37 °C in a 5% (v/v) CO2 for 24, 48 or 72 h.
(§3) Briefly, after the treatment with OOPs, the adapted medium was removed from the dish wells and the cells were washed twice with medium without FBS. Then, the C-lysis (LT27-076) was diluted in PBS (1:2) and a volume of 50 μL was added to each well. Cells were incubated with C-lysis for at least 10 min. Finally, an equal volume of lysed cells from each well and ATP monitoring reagent (AMR; LT27-212) was transferred to the wells of a white-walled illuminometer plate (Greiner bio-one; 655074). Cell viability was quantified by measuring luminescence using a multi-mode microplate reader Safire^2 Tecan (software Magellan V6.00 STD.2PC WIN.20000/XP).

[2] = system: WJ-MSC; test: as above; design: species or system human; details: WJ-MSC (mesenchymal cells), 72 h treatment, read-out: EC50 Values of Olive Oil Polyphenols
Procedure: The antiproliferative/cytotoxic effects of the selected OOPs on each cell line were assessed by measuring the cellular ATP levels after 72 h treatments using an ATP-based luminescence assay [73]. […] The EC50 values were calculated by nonlinear regression (curve fit) using a sigmoidal dose–response equation (Figure 2A and Figure S2).
Briefly, after the treatment with OOPs, the adapted medium was removed from the dish wells and the cells were washed twice with medium without FBS. Then, the C-lysis (LT27-076) was diluted in PBS (1:2) and a volume of 50 μL was added to each well. Cells were incubated with C-lysis for at least 10 min. […] Cell viability was quantified by measuring luminescence using a multi-mode microplate reader Safire^2 Tecan (software Magellan V6.00 STD.2PC WIN.20000/XP).

[3] = system: sixteen human cancer cell lines originating from eight different tissues; test: ATP-based luminescence cell viability assay, whole panel; details: for Bioactivity range on cancer cell lines (grade in words): Figure 3, sixteen cancer cell lines; for EC50: 72 h treatment
Procedure: as §1, §2, §3

[4] = system: AGS; test: ATP assay under 1% (v/v) O2 versus 20% (v/v) O2, 72 h; format: cell-based, human; details: 1% (v/v) O2 vs 20% (v/v) O2
Procedure: The effects of drugs on cancer cell lines are usually tested under atmospheric conditions (20% (v/v) O2). However, the O2 content in tissues (normoxia) and solid tumors (hypoxia) is ≤ 5% (v/v). In some tumors (i.e., pancreatic tumors) the % O2 is even ≤ 1% (v/v). This affects cell metabolism and signaling pathways which depend on the hypoxia-induced Factor 1A (HIF1A) and it could affect the activity of certain drugs. […] The effects of these three OOPs were tested on the MDA-MB 231, SK-BR-3 and MCF-7 breast cancer and on the AGS stomach cancer cell lines.
Figure 6 Effect of O2 concentration on the antiproliferative/cytotoxic effect of OOPs. […] Cell viability was determined on (A) AGS, (B) MDA-MB 231, (C) MCF-7 and (D) SK-BR-3 cell lines using ATP-based luminescence assay. The results presented are from two independent experiments performed in triplicate. Bar graphs represent the mean cell count ± SE in each treatment group normalized to the control group (i.e., cells treated only with 0.2% (v/v) DMSO). * p < 0.05; ** p ≤ 0.01; *** p ≤ 0.001 (t-test) comparing the two different conditions.

[5] = system: MCF-10A cells; design: method as in PMID 23403296, PMID 33117773, PMID 24849787, PMID 30964898; details: cited from earlier work
[6] = system: SK-BR-3; details: cited from earlier work
[7] = system: MDA-MB 231; details: cited from earlier work
[8] = Homo sapiens, range across cancer cell lines, read-out: EC50, range over the cancer cell lines

Compound: C/C=C(/C=O)[C@@H](CC=O)CC(=O)OCCc1ccc(O)c(O)c1 [compound 2, oleacein]
- EC50 [1]: 49 ± 1.2 µM
- EC50 ([2]; Homo sapiens): 28.2 ± 11.1 µM
- Bioactivity range on cancer cell lines (grade in words) [3]: Good/moderate activity on 9/16 cancer cell lines
- EC50 [3, 8]: > 25 µM

Compound: C/C=C(/C=O)[C@@H](CC=O)CC(=O)OCCc1ccc(O)cc1 [compound 1, oleocanthal]
- bioactivity under hypoxia versus atmospheric O2 [4]: similar
- EC50 [1]: 24.7 ± 0.4 µM
- sensitivity of cells to treatment ([5]; 40 μM): resistant
- EC50 ([6]; 48 h treatment in HGF- and EGF-supplemented media, ref Siddique et al. (2019) 76, read-out: EC50): 27.3 µM
- EC50 ([7]; 48 or 72 h, different culture conditions): 10 to 18.5 µM
- Bioactivity range on cancer cell lines (grade in words) [3]: Very strong activity on 10/16 cancer cell lines
- EC50 ([3]; Homo sapiens, most cancer cell lines, read-out: EC50 in most cancer cell lines): 9 to 20 µM
- EC50 [3, 8]: 9.1 to 44.6 µM

Compound: ligstroside aglycone [4a,b]
- bioactivity under hypoxia versus atmospheric O2 [4]: less effective under hypoxic conditions
- EC50 [1]: 46.5 ± 5 µM
- sensitivity of cells to treatment ([5]; 50 μM): resistant
- EC50 ([6]; 5 day treatment, read-out: EC50): 26 ± 6 µM
- EC50 [2]: 39.3 ± 3.8 µM
- EC50 ([7]; 48 h treatment, ref Busnena et al. (2013) 23): ~80 µM
- EC50 ([3]; range across cancer cell lines, read-out: EC50, range over the cancer cell lines): 11.6 to 98.2 µM
- Bioactivity range on cancer cell lines (grade in words) [3]: Very strong activity on lung cancer cell lines

Compound: COC(=O)C1=COC(C)[C@@H](C=O)[C@@H]1CC(=O)OCCc1ccc(O)c(O)c1 (mixture of isomers) [3a,b, oleuropein aglycone]
- bioactivity under hypoxia versus atmospheric O2 [4]: similar
- EC50 [1]: 42.7 ± 0.5 µM
- sensitivity of cells to treatment ([5]; 150 μM): resistant
- EC50 ([6]; five days of treatment, ref Menendez et al. (2007) 17, read-out: concentration reducing cell viability by 50%): 47 µM
- EC50 ([2]; Homo sapiens): 28.7 ± 0.3 µM
- EC50 ([7]; ref Mazzei et al. (2020) 27): 53 µM
- Bioactivity range on cancer cell lines (grade in words) [3]: Very strong activity on 7/16 cancer cell lines
- EC50 [3, 8]: 11.9 to 50.1 µM
